From patent US9896512B2, “Antitumor peptide derived from a complementarity determining region of a humanized monoclonal antibody to NAP12B transporter” (Recepta Biopharma S.A., priority 2010, dated 2018)
pEC50: −log10 of the molar value. “Also recorded” adds a separate entry of the source. No end group written: not given here.

Key:
B16F10-Nex2 cells [1] = assay: Tumor cell invasion through Matrigel (Transwell); format: cell-based, murine; design: inhibition of cell invasion: dose or concentration left out as unconfirmed; conditions: 24 hours
Description: […] As a chemoattractant, 10% FCS in RPMI was used in the transwell lower chamber. After 24 hours at 37° C. in humidified atmosphere with 5% CO2, non-invasive cells were excluded with a swab, and cells that crossed the membrane were fixed with methanol and stained with Giemsa. Cells were counted in each transwell membrane, and the numbers of invasive cells are expressed as percentages.

HCT cells = assay: Detection of peptide-treated hyper adherent cells (MTT after trypsin-EDTA); format: cell-based, human; conditions: 500 μM peptide, 24 hours
Description: Viable SiHa cells (1×10^4)/well were distributed on a 96-well culture plate and incubated for 4 hours at 37° C. in a humidified chamber with 5% CO2. Fresh medium containing different peptide concentrations of RB9 (SEQ ID NO: 8) and RB10 (SEQ ID NO: 9) ranging from 0 to 1 mM (i.e., 0, 0.25, 0.5 and 1 mM) was added to the wells and incubated for 24 hours. The medium was then aspirated; cells were detached with 30 μl/well of trypsin-EDTA for five minutes at 37° C. and gently washed with PBS. Hyper-adherent cells were incubated for 4 hours with 0.5 mg/mL of MTT [3-(4,5-dimethylthiazol-2-yl)-2,5-diphenyltetrazolium bromide] in fresh medium and formazan crystals were solubilized adding 1 volume of 10% SDS solution overnight. Intensity was measured using a plate reader at 570 nm.
Viable HCT cells (1×10^4)/well were distributed on a 96-well culture plate and incubated for 4 hours, following the same protocol of Example 5.

[2] = Peptide degradation by human plasma (HPLC / mass spectrum); format: in vitro ADME
Description: (§1) Peptides have variable half lives in the plasma due to the proteolytic activity and the renal filtration, which are relevant aspects in the pharmacokinetics of drug candidates.
To analyze the peptide in HPLC and Mass Spectrum, an aliquot of 200 μL was transferred to a new Eppendorf tube and proteins were precipitated with 20 μL trifluoroacetic acid for 5 minutes at 4° C. After centrifugation for 10 minutes at 14,000 rpm, the supernatant was analyzed in an LC/ESI-MS (Waters).
Regarding assays for determining time-lapse plasma degradation of RB9 peptide, peptide degradation by human plasma was monitored in HPLC and Mass spectra every 30 minutes as described above (FIG. 12). About 50% RB9 was cleaved after 2 hours of incubation at 37° C.

[3] = system: human ovary cancer OVCAR-3 cells; assay: Cell migration, wound healing assay; format: cell-based; conditions: peptide 500 μM, 24 hours
Description: (§2) For the migration studies, 5×10^5 or 10^6 cells were distributed on 6-well plates and let them to adhere for 2 hours at 37° C./5% CO2. The culture medium was changed and the peptide was added at 500 μM overnight. The cell monolayer was “wounded” with a P1000 tip and incubated for 24 hours. Images of untreated cells (control) and peptide treated cells were captured with a JENOPTIK camera. Cell numbers (nuclei) were determined using the Pixcavator software version 5.0.

[4] = system: T75 primary human fibroblasts; assay: Cell migration, wound healing assay; format: cell-based; conditions: normal non-tumorigenic cells
Description: as §2

[5] = system: FibroRP primary human fibroblasts; assay: Cell migration, wound healing assay; format: cell-based; conditions: normal non-tumorigenic cells
Description: as §2

[6] = system: human breast cancer SKBr-3 cells; assay: Cell migration, wound healing assay; format: cell-based; conditions: peptide 500 μM, 24 hours
Description: as §2

[7] = system: human melanoma A2058 cells; assay: Cell migration, wound healing assay; format: cell-based; conditions: peptide 500 μM, 24 hours
Description: as §2

3T3 murine fibroblasts = assay: Cell migration, wound healing assay; format: cell-based; conditions: normal non-tumorigenic cells
Description: as §2

[8] = system: human colon cancer HCT cells; assay: Cell migration, wound healing assay; format: cell-based; conditions: peptide 500 μM, 24 hours
Description: as §2

HL-60 cells = assay: Cell viability, Trypan blue count or MTT assay; format: cell-based, human; conditions: for cytotoxicity to HL-60 cells: cells growing in suspension, Trypan blue / MTT
Description: Viable HL-60 cells (1×10^4)/well were distributed on a 96-well culture plate and incubated for 4 hours with different concentrations of RB9 (SEQ ID NO: 8) ranging from 0 to 1 mM for 24 hours. Cell viability was directly measured by counting in a Neubauer chamber with Trypan blue or estimated by the colorimetric MTT assay.

[9] = In vivo peptide toxicity evaluation (histopathology); design: species or system mice; conditions: 300 μg via i.p., seven consecutive days
Description: Mice were injected with RB9 (SEQ ID NO: 8) for seven consecutive days (300 μg via i.p.) and were sacrificed thereafter for histopathology. […] Also the peptides were not hemolytic as shown in FIG. 21 for RB10M3 (SEQ ID NO: 31).

Solubility comparison = format: physicochemical
Excerpt: as §1

[10] = system: human cervix cancer HeLa cells; assay: Cell migration, wound healing assay; format: cell-based; conditions: peptide 500 μM, 24 hours
Description: as §2

B16F10-Nex2 cells [11] = assay: Superoxide anion production, dihydroethidium (DHE) assay; format: cell-based, murine; conditions: 1 mM, 18 hours
Description: Based on the internal interactions of components, such as, actin and peroxides in tumor cells, even leading to apoptosis, the production of anion superoxide in tumor cells treated with RB10 was examined by dihydroethidium (DHE) assay.
B16F10-Nex2 cells were treated with 1 mM RB10 for 18 hours or 5 mM H2O2 for 20 minutes. Treated cells with peptide or H2O2 and untreated cells were then incubated with DHE. Conversion of DHE to ethidium by oxidation was observed using fluorescence microscopy (Magnification 600×).

melanoma = assay: Primary tumor development in a subcutaneous model; format: in vivo; conditions: susceptible mice
B16F10-Nex2 cells [12] = assay: Growth inhibition (cell number by image analysis); format: cell-based, murine
Description: Viable B16F10-Nex2 cells (5×10^5)/well were distributed on a 6-well culture plate and incubated for 4 hours. Fresh medium containing 0 or 500 μM of RB10 ([…]) was added to the wells and incubated for 12 hours. Image was captured using a camera (Jenoptik) with the software Progres 2.8. The number of cells was detected using the software pixcavator (intelligent perception). After 12 hours with 0.5 mM of RB10, melanoma cells had fewer cells by 39% (FIG. 15); these cells were still able to proliferate but not to migrate. […] Magnification ×100.

C[C@@H]1NC(=O)[C@H](CCCNC(=N)N)NC(=O)[C@H](C)NC(=O)[C@H]([C@@H](C)O)NC(=O)[C@H](CCC(=O)O)NC(=O)CNC(=O)[C@H](CCCNC(=N)N)NC(=O)[C@H](C)NC(=O)[C@@H](N)CSSC[C@@H](C(N)=O)NC(=O)CNC(=O)[C@H](CCC(N)=O)NC(=O)CNC(=O)[C@H](Cc2c[nH]c3ccccc23)NC(=O)[C@H](Cc2ccc(O)cc2)NC(=O)[C@H](C)NC(=O)[C@H](Cc2ccccc2)NC(=O)[C@H]([C@@H](C)O)NC1=O [RB9, CARGETARATFAYWGQGC-NH2]
inhibition of cell invasion (B16F10-Nex2 cells [1]): 60% | inhibition of cell invasion through Matrigel, dose dependence (B16F10-Nex2 cells [1]; 10% FCS chemoattractant): dose-dependent inhibition | cells resistant to trypsinization (HCT cells): 80% | degradation in human plasma at 24 hours ([2]; 24 hours, 37° C.): whole peptide was degraded; also recorded: total degradation | peptide cleaved / degraded in human plasma ([2]; after 2 hours of incubation at 37° C.): 50% | metabolised at 2 h, 1.67 mg/mL ([2]; human, human plasma, after 2 hours of incubation at 37° C., read-out: peptide cleaved / degraded in human plasma): ~50% | inhibition of cell migration [3]: half inhibited; also recorded: partial inhibition | inhibition of cell migration [4]: did not affect; also recorded: non-inhibition | inhibition of cell migration [5]: did not affect; also recorded: non-inhibition | inhibition of cell migration [6]: completely inhibited; also recorded: complete inhibition | inhibition of cell migration [7]: completely inhibited; also recorded: complete inhibition | inhibition of cell migration (3T3 murine fibroblasts): did not affect; also recorded: non-inhibition | inhibition of cell migration [8]: completely inhibited; also recorded: partial inhibition | pEC50 (HL-60 cells; 24 hours, Trypan blue and MTT, read-out: concentration reducing cell viability by 50% (ED50)): 3.03 to 3.04 | cytotoxicity to HL-60 cells (HL-60 cells): mildly cytotoxic; also recorded: mild cytotoxicity | toxicity, morphological alterations in liver, lung, heart, kidney and spleen [9]: No signs of toxicity or morphological alterations | solubility (comparison) (Solubility comparison): more soluble than RB10

CARGETARATFAYWGQG-NH2 [RB10, CARGETARATFAYWGQG-NH2]
cells resistant to trypsinization (HCT cells): 80% | inhibition of cell migration [10]: complete or almost complete inhibition | reaction with dihydroethidium (anion superoxide production) (B16F10-Nex2 cells [11]): positive | cytotoxicity to HL-60 cells (HL-60 cells): mildly cytotoxic | protection against development of a primary tumor (melanoma): not against the development of a primary tumor | fewer cells than control (B16F10-Nex2 cells [12]; 0.5 mM, 12 hours): 39% | inhibition of growth (B16F10-Nex2 cells [12]; 12 hours incubation): partial inhibition
